First: CCCCCCCCCCCC(=O)OCn1cc(F)c(=O)[nH]c1=O
Second: CC1CCC(C(C)C)C(OCC(=O)OC2CC(=O)C(CCCCCCC(=O)O)=C2C=Cc2ccccc2)C1 (stereo unspecified)
The melting point of the first is higher: 114 °C for the first, 103 to 104 °C for the second.

First: CC1(C)SC(=N)NC1=O
Second: CC1(C)CC(=O)Nc2ccc(-c3cccc(C#N)c3)cc21
The melting point of the first is higher: 252 to 254 °C for the first, 190 to 192 °C for the second.

Compared with O=C(SSCCSSC(=O)N1CCOCC1)N1CCOCC1, CCOC(=O)c1ncn2c1nc(N1CCOCC1)c1ccccc12 is lower in melting point: 178 to 179 °C for the first, 165 °C for the second.

Compared with N#CC=C(c1ccc(-c2ccccc2)cc1)c1ccc(-c2ccccc2)cc1, O=C(NCCOc1ccc(CC(Oc2ccccc2)C(=O)O)cc1)c1ccc(-c2ccccn2)cc1 (stereo unspecified) is lower in melting point: 154 °C for the first, 149 to 151 °C for the second.

Compared with O=C(Nc1ccc(Cl)cc1Cl)c1ccccc1SSc1ccccc1C(=O)Nc1ccc(Cl)cc1Cl, Nc1cccc(Sc2cccc3c2C(=O)c2cccc(Sc4cccc(N)c4)c2C3=O)c1 is higher in melting point: 227 to 228 °C for the first, 292 to 293 °C for the second.

First: CCCc1c2c(c(OC)c3c(=O)cc(C(=O)OC)oc13)CCCC2
Second: COc1cc(-c2nc(N)sc2CCC2CCCCC2)c(OC)cc1C
The melting point of the first is lower: 92 to 93 °C for the first, 112 °C for the second.

First: NS(=O)(=O)c1ccc(-c2c(-c3ccccc3)noc2COCCS(=O)(=O)CCO)cc1
Second: CCCCNC(=O)N1CCC(c2nc(-c3ccc(-c4ccccc4)cc3)c[nH]2)CC1
The melting point of the first is lower: 81 °C for the first, 99 to 100 °C for the second.

Compared with COC(=O)c1cccc2c1nc(/C=C/c1ccc(OC)c(OC)c1)n2C, COC(=O)c1cn(-c2ccc(OC(C)=O)cc2C)c(C=O)cc1=O is higher in melting point: 187 to 189 °C for the first, 216 to 217 °C for the second.

CC(O)c1cc2c3ccccc3[nH]c(=O)n2n1 (stereo unspecified) and Cc1c2c(cc3c(=O)c4ccccc4oc13)CC(CO)O2 (stereo unspecified) cannot be ordered by melting point: 242 to 245 °C for the first, 242 to 243 °C for the second.

First: COc1ccc2nc(COc3ccc(F)c(C(N)=O)c3F)sc2c1
Second: CS(=O)(=O)Nc1ccc(C(N)=NO)cc1Oc1ccc(F)cc1F
The melting point of the first is higher: 190 to 192 °C for the first, 174 to 175 °C for the second.

First: CC(=O)c1c(C)c(NC(=O)CC(C)(C)C)c(C)c2c1S(=O)CC2c1ccc(C(C)C)cc1 (stereo unspecified)
Second: CCOC(=O)C(C)(C(C)=O)c1ccc(N)c(NC)c1C#N (stereo unspecified)
The melting point of the first is higher: 214 to 216 °C for the first, 118 to 123 °C for the second.

First: Cc1cc(C)nc(-n2ccnc2S(=O)Cc2ccccc2NC=O)c1 (stereo unspecified)
Second: Cc1nc2c3c(ccn2c1C)C(=O)[C@](O)(Cc1ccccc1)[C@@H](c1ccccc1)N3
The melting point of the first is lower: 160 to 162 °C for the first, 248 to 251 °C for the second.

Compared with N#CC(Cc1ccccn1)(c1ccc(F)cc1)c1ccc([N+](=O)[O-])c(C(F)(F)F)c1 (stereo unspecified), Cc1ccc(-c2cc(C(F)(F)F)nn2-c2ccc(S(=O)(=O)Cl)cc2)cc1 is lower in melting point: 118 to 119 °C for the first, 97 to 98 °C for the second.

First: CCOc1ccc2[nH]ccc2c1
Second: CCOC(=O)C1(O)COc2cc3ccc(=O)[nH]c3cc2C1=O (stereo unspecified)
The melting point of the first is lower: 144 to 146 °C for the first, > 300 °C for the second.

Compared with CCN(CCC12CC3CC(CC(C3)C1)C2)C(=O)NCCCc1ccncc1, CCCCCc1ccc(-c2ncc([C@H]3CC[C@H](CCC)CC3)cn2)cc1 is lower in melting point: 106 to 115 °C for the first, 93.5 °C for the second.

First: CC(C)n1nc(-c2cnc(N)nc2-c2ccc(C(F)(F)F)cc2)ccc1=O
Second: O=c1[nH]nc(-c2ccc(-n3ccnc3)cc2)c2cccnc12
The melting point of the first is lower: 209 to 210 °C for the first, 359 to 361 °C for the second.

Compared with Cn1cc(-c2cccc(O)c2)c(=O)c(C2CCCCC2)c1, Cn1cc(-c2cc(OC3CCCC3)c(Cl)cc2F)c(=O)cc1C(F)(F)F is lower in melting point: 155 to 165 °C for the first, 152 to 154 °C for the second.

First: COC(=O)c1ccc(CC(=O)c2cc(OC)c3c(c2)C(C)(C)CCC3(C)C)cc1
Second: Cc1sc(C(=O)OCc2ccccc2)cc1NC(=O)NCc1ccccc1
The melting point of the first is lower: 143 to 144 °C for the first, 208 to 209 °C for the second.

First: CNC(=S)C1=CC(C)(C)Oc2ccc([N+](=O)[O-])cc21
Second: COC(=O)Cc1nc(-c2ccc(Cl)cc2)oc1Oc1cccc([N+](=O)[O-])c1
The melting point of the first is higher: 147 to 148 °C for the first, 97 to 99 °C for the second.

First: COc1cc2c(Cl)c(C#N)cnc2cc1OCC1CCN(C)CC1
Second: COc1ccc(C2CCN(C(=O)CC(=O)O)CC2)cc1OC1CCCC1
The melting point of the first is higher: 166 to 168 °C for the first, 122 to 123 °C for the second.

Compared with Cc1nn(-c2cccnc2)cc1C(=O)O, Cc1c(C(=O)O)cnn1-c1ccc(F)cc1F is lower in melting point: 200 to 210 °C for the first, 183 to 184 °C for the second.

Compared with CC(C)(C)C(=O)Nc1c[nH]nc1C(=O)NCCC#N, CC(C)(C)OC(=O)N1CCn2c(Cl)cc(C(N)=O)c2C1 is higher in melting point: 165 to 166 °C for the first, 223 to 225 °C for the second.

CSc1nc(N2CCc3ccccc3CC2)c(C#N)c2nncn12 and O=C(c1cnc(Cl)nc1C(F)(F)F)N1Cc2cccn2Cc2ccccc21 cannot be ordered by melting point: > 200 °C for the first, 221 to 223 °C for the second.

Compared with ClCc1cnc2cc(Cl)ccc2c1Cl, CCC1C(=O)c2c(cc(O)c(Cl)c2Cl)C1c1ccccc1 (stereo unspecified) is higher in melting point: 106 to 107 °C for the first, 220 to 222 °C for the second.

Compared with O=C(Nc1nc(C(F)(F)F)c(I)s1)c1cccs1, O=C(Nc1c(C(O)(C(F)(F)F)C(F)(F)F)ccc2ccccc12)c1cccs1 is higher in melting point: 184 to 185 °C for the first, 191 to 192 °C for the second.

Compared with NC(=O)[C@H]1CCCCCC[C@H](CS)C(=O)N1 (relative stereo), N#Cc1cc(F)cc(-c2ccc3c(c2)C(C2CC2)(C2CC2)OC(=O)N3)c1 is higher in melting point: 185 to 192 °C for the first, 250 to 252 °C for the second.

First: Cc1ccc2c(c1)C=Cc1ncccc1C2c1c[nH]c(=O)[nH]c1=S (stereo unspecified)
Second: CCc1cc(-c2nc(C)c(-c3ccnc(Nc4ccc(CNC(C)=O)cc4)n3)s2)ccn1
The melting point of the first is higher: > 250 °C for the first, 224 to 225 °C for the second.

Compared with C=CCN1C(=O)CCc2cc(Sc3cccc([C@@]4(O)CCO[C@@H](C)C4)c3)ccc21, O=C1N(c2ccc(Cl)cc2Cl)Cc2cnc(Nc3ccccc3)nc2N1c1cccc(CCN2CCOCC2)c1 is higher in melting point: 107 to 109 °C for the first, 118 °C for the second.

First: Cc1cc(N2NCCNC2=O)cc(Cl)c1C(O)c1ccc(Cl)cc1 (stereo unspecified)
Second: Oc1ccc2nc(-c3ccc(O)c(Cl)c3)oc2c1
The melting point of the first is lower: 146 to 147 °C for the first, 254 to 256 °C for the second.

First: COC(=O)c1ccc(C2=NOC(c3cc(Cl)cc(Cl)c3)(C(F)(F)F)C2)c2ccccc12 (stereo unspecified)
Second: CC(=O)Nc1ccc(-c2cc(=O)c(C(=O)O)cn2-c2ccc(F)cc2)cc1
The melting point of the first is lower: 137 to 138 °C for the first, 249 to 250 °C for the second.

Compared with COC(=O)C1=C(C)NC2=C(C(=O)OC2)C1c1ccc2c(c1)OCO2 (stereo unspecified), CCCCc1cccc2c3c([nH]c12)C(CC)(CC(=O)O)CCC3 (stereo unspecified) is lower in melting point: 226 to 228 °C for the first, 131 to 134 °C for the second.

Compared with O=C(C=CC=C(c1ccccc1)c1ccccc1)NCCCCCC(=O)NO, O=C(O)CCC1c2ccccc2C(=O)N1c1ccccc1 (stereo unspecified) is higher in melting point: 167 to 169 °C for the first, 186 to 187 °C for the second.

First: CC1(C)CC(=O)N(CCCCN2CCN(c3nc(C(C)(C)C)cs3)CC2)C(=O)C1
Second: c1ccc(C(c2ccccc2)N2CCN(CCCn3c(C4CCCCC4)nc4ccccc43)CC2)cc1
The melting point of the first is lower: 93 to 94 °C for the first, 115 °C for the second.

Compared with CCOC(=O)C(O)=CC=C(C#N)c1ccccc1, COc1ccc(Br)cc1C(=O)C(Br)C(Br)c1ccc(Br)cc1 (stereo unspecified) is lower in melting point: 189 °C for the first, 158 to 159 °C for the second.

First: Cc1cccc(Cl)c1NS(=O)(=O)c1n[nH]c(NC=O)n1
Second: Cc1ccc(-c2ccc(S(C)(=O)=O)c(F)c2)n1-c1ccc(-c2cscn2)cc1
The melting point of the first is higher: 291 to 300 °C for the first, 215 °C for the second.

Work on CC(=O)NC1C(Oc2nc[nH]c2C(N)=O)OC(COC(C)=O)C(OC(C)=O)C1OC(C)=O (stereo unspecified) yielded a melting point of 133 to 135 °C.

— a melting point compilation (Tetko et al.; mined from patent text by program, amines drawn as free bases though some values may be those of a salt)
